Test results from PubChem BioAssay (NCI).
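The concentration for 50% growth inhibition is given as GI50. TGI marks complete inhibition of growth.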

Legend:
Test in all cases: inhibition of tumour cell growth, NCI panel, 384-well format
[1] = system: U251 glioblastoma
[2] = system: T-47D breast
[3] = system: NCI-H226 lung
[4] = system: MOLT-4 leukemia
[5] = system: A498 renal
[6] = system: OVCAR-3 ovarian
[7] = system: NCI/ADR-RES ovarian
[8] = system: SW-620 colon
[9] = system: NCI-H23 lung
[10] = system: NCI-H522 lung
[11] = system: OVCAR-8 ovarian
[12] = system: RXF 393 renal
[13] = system: MDA-MB-231 breast
[14] = system: SK-OV-3 ovarian
[15] = system: CAKI-1 renal
[16] = system: SNB-19 CNS
[17] = system: OVCAR-4 ovarian
[18] = system: K-562 leukemia
[19] = system: CCRF-CEM leukemia
[20] = system: SF-295 CNS
[21] = system: LOX IMVI melanoma
[22] = system: HCT-116 colon
[23] = system: A549 NSCLC
[24] = system: M14 melanoma
[25] = system: PC-3 prostate
[26] = system: IGROV1 ovarian
[27] = system: HOP-92 NSCLC
[28] = system: SK-MEL-28 melanoma
[29] = system: SF-268 CNS
[30] = system: MALME-3M melanoma
[31] = system: HCT-15 colon
[32] = system: ACHN renal
[33] = system: HS 578T breast
[34] = system: HT29 colon
[35] = system: SNB-75 CNS
[36] = system: HL-60(TB) leukemia
[37] = system: NCI-H322M lung
[38] = system: MCF7 breast
[39] = system: OVCAR-5 ovarian
[40] = system: TK-10 renal
[41] = system: COLO 205 colon
[42] = system: MDA-MB-468 breast
[43] = system: HCC-2998 colon
[44] = system: KM12 colon
[45] = system: DU-145 prostate
[46] = system: SF-539 CNS
[47] = system: UACC-257 melanoma
[48] = system: SK-MEL-5 melanoma
[49] = system: MDA-MB-435 melanoma
[50] = system: NCI-H460 NSCLC
[51] = system: BT-549 breast
[52] = system: SK-MEL-2 melanoma
[53] = system: 786-0 renal
[54] = system: SN12C renal
[55] = system: HOP-62 NSCLC
[56] = system: RPMI-8226 leukemia
[57] = system: UACC-62 melanoma
[58] = system: EKVX NSCLC
[59] = system: UO-31 renal

CCn1nc(C2CCN(C(=O)CCO)CC2)nc1-c1cnc(N)c(-c2nnc(C(C)(C)C)o2)n1
GI50 [1]: 41.7 µM | TGI [1]: > 100 µM | GI50 [2]: 170 nM | TGI [2]: 0.832 µM | GI50 [3]: 24.6 µM | TGI [3]: > 100 µM | GI50 [4]: 1110 nM | TGI [4]: 8.87 µM | GI50 [5]: 18.1 µM | TGI [5]: > 100 µM | GI50 [6]: 7 µM | TGI [6]: 22.1 µM | GI50 [7]: 19.4 µM | TGI [7]: 84.1 µM | GI50 [8]: 34.4 µM | TGI [8]: > 100 µM | GI50 [9]: 16.7 µM | TGI [9]: 73.7 µM | GI50 [10]: 15.1 µM | TGI [10]: 38.6 µM | GI50 [11]: 29.8 µM | TGI [11]: > 100000 nM | GI50 [12]: 2420 nM | TGI [12]: 15.7 µM | GI50 [13]: 80.9 µM | TGI [13]: > 100 µM | GI50 [14]: 599 nM | TGI [14]: 14.8 µM | GI50 [15]: 4.7 µM | TGI [15]: > 100 µM | GI50 [16]: 35.2 µM | TGI [16]: > 100 µM | GI50 [17]: 32.9 µM | TGI [17]: > 100000 nM | GI50 [18]: 17.3 µM | TGI [18]: 44.7 µM | GI50 [19]: 6.7 µM | TGI [19]: 23.4 µM | GI50 [20]: 993 nM | TGI [20]: > 100 µM | GI50 [21]: 10.1 µM | TGI [21]: 23.8 µM | GI50 [22]: 23.2 µM | TGI [22]: > 100 µM | GI50 [23]: 5.24 µM | TGI [23]: > 100 µM | GI50 [24]: 16 µM | TGI [24]: > 100 µM | GI50 [25]: 3.65 µM | TGI [25]: > 100 µM | GI50 [26]: 320 nM | TGI [26]: 1810 nM | GI50 [27]: 3350 nM | TGI [27]: > 100 µM | GI50 [28]: 5590 nM | TGI [28]: > 100 µM | GI50 [29]: 24.4 µM | TGI [29]: > 100 µM | GI50 [30]: 7.64 µM | TGI [30]: 59.7 µM | GI50 [31]: 15.8 µM | TGI [31]: > 100000 nM | GI50 [32]: 15.5 µM | TGI [32]: > 100 µM | GI50 [33]: 6.89 µM | TGI [33]: 31.8 µM | GI50 [34]: 3.02 µM | TGI [34]: 25.5 µM | GI50 [35]: 1130 nM | TGI [35]: 13.2 µM | GI50 [36]: 377 nM | TGI [36]: 12.2 µM | GI50 [37]: 5000 nM | TGI [37]: > 100 µM | GI50 [38]: 200 nM | TGI [38]: > 100000 nM | GI50 [39]: 10.7 µM | TGI [39]: > 100 µM | GI50 [40]: 2710 nM | TGI [40]: 76.4 µM | GI50 [41]: 6.8 µM | TGI [41]: 23.9 µM | GI50 [42]: 2800 nM | TGI [42]: 17.1 µM | GI50 [43]: 7.79 µM | TGI [43]: 47 µM | GI50 [44]: 13.3 µM | TGI [44]: 32.3 µM | GI50 [45]: 13.7 µM | TGI [45]: 100 µM | GI50 [46]: 16.6 µM | TGI [46]: > 100000 nM | GI50 [47]: 22.2 µM | TGI [47]: > 100 µM | GI50 [48]: 8.62 µM | TGI [48]: 36.9 µM | GI50 [49]: 11.3 µM | TGI [49]: > 100 µM | GI50 [50]: 1190 nM | TGI [50]: > 100 µM | GI50 [51]: 6.24 µM | TGI [51]: 54.3 µM | GI50 [52]: 17.3 µM | TGI [52]: > 100 µM | GI50 [53]: 7.59 µM | TGI [53]: > 100 µM | GI50 [54]: 5.27 µM | TGI [54]: > 100 µM | GI50 [55]: 42.7 µM | TGI [55]: > 100000 nM | GI50 [56]: 16.5 µM | TGI [56]: 30.9 µM | GI50 [57]: 6.81 µM | TGI [57]: > 100000 nM | GI50 [58]: 3.08 µM | TGI [58]: 30 µM | GI50 [59]: 4310 nM | TGI [59]: 77.2 µM

Cc1nnn(C)c1-c1cnc2c3ccc(C(C)(C)O)cc3n([C@H](c3ccccc3)C3CCOCC3)c2c1
GI50 [1]: 0.315 µM | TGI [1]: 12.7 µM | GI50 [2]: 13.7 nM | TGI [2]: 11.1 µM | GI50 [3]: < 0.01 µM | TGI [3]: 10.3 µM | GI50 [4]: < 10 nM | TGI [4]: 0.211 µM | GI50 [5]: < 0.01 µM | TGI [5]: 10.7 µM | GI50 [6]: < 0.01 µM | TGI [6]: 1.71 µM | GI50 [7]: 0.197 µM | TGI [7]: 8.56 µM | GI50 [8]: 1.74 µM | TGI [8]: 17.4 µM | GI50 [9]: < 0.01 µM | TGI [9]: 3.35 µM | GI50 [10]: < 0.01 µM | TGI [10]: 0.0106 µM | GI50 [11]: < 0.01 µM | TGI [11]: 1300 nM | GI50 [12]: < 10 nM | TGI [12]: 0.155 µM | GI50 [13]: < 0.01 µM | TGI [13]: 11.8 µM | GI50 [14]: < 10 nM | TGI [14]: 1.45 µM | GI50 [15]: < 0.01 µM | TGI [15]: 3.96 µM | GI50 [16]: 0.032 µM | TGI [16]: 20.3 µM | GI50 [17]: < 0.01 µM | TGI [17]: 21.2 nM | GI50 [18]: < 0.01 µM | TGI [18]: 13.8 µM | GI50 [19]: < 0.01 µM | TGI [19]: 1.42 µM | GI50 [20]: 380 nM | TGI [20]: 17 µM | GI50 [21]: < 0.01 µM | TGI [21]: 0.0113 µM | GI50 [22]: 0.0242 µM | TGI [22]: 12.8 µM | GI50 [23]: < 0.01 µM | TGI [23]: 13 µM | GI50 [24]: < 0.01 µM | TGI [24]: 15.7 µM | GI50 [25]: < 0.01 µM | TGI [25]: 25 µM | GI50 [26]: < 10 nM | TGI [26]: 1360 nM | GI50 [27]: 25.3 nM | TGI [27]: 14.5 µM | GI50 [28]: 89.9 nM | TGI [28]: 24.2 µM | GI50 [29]: 0.0793 µM | TGI [29]: 16.8 µM | GI50 [30]: < 0.01 µM | TGI [30]: 0.268 µM | GI50 [31]: 0.0139 µM | TGI [31]: 1320 nM | GI50 [32]: 0.0445 µM | TGI [32]: 12.2 µM | GI50 [33]: < 0.01 µM | TGI [33]: 0.758 µM | GI50 [34]: < 0.01 µM | TGI [34]: 15.1 µM | GI50 [35]: 299 nM | TGI [35]: 14 µM | GI50 [36]: < 10 nM | GI50 [37]: 19 nM | TGI [37]: 17.5 µM | GI50 [38]: < 10 nM | TGI [38]: 435 nM | GI50 [39]: < 0.01 µM | TGI [39]: 12.6 µM | GI50 [40]: < 10 nM | TGI [40]: 0.0908 µM | GI50 [41]: < 0.01 µM | TGI [41]: 0.331 µM | GI50 [42]: < 10 nM | TGI [42]: 1.22 µM | GI50 [43]: < 0.01 µM | TGI [43]: 0.0497 µM | GI50 [44]: < 0.01 µM | TGI [44]: 10.8 µM | GI50 [45]: 0.753 µM | TGI [45]: 22.1 µM | GI50 [46]: 0.0103 µM | TGI [46]: 54.3 nM | GI50 [47]: < 0.01 µM | TGI [47]: 5.55 µM | GI50 [48]: < 0.01 µM | TGI [48]: 1.11 µM | GI50 [49]: 0.0431 µM | TGI [49]: 61.7 µM | GI50 [50]: 354 nM | TGI [50]: 15.6 µM | GI50 [51]: < 0.01 µM | TGI [51]: 0.0727 µM | GI50 [53]: 0.015 µM | TGI [53]: 11.7 µM | GI50 [54]: 1.21 µM | TGI [54]: 20.6 µM | GI50 [55]: < 0.01 µM | TGI [55]: 2770 nM | GI50 [56]: < 0.01 µM | GI50 [57]: < 0.01 µM | TGI [57]: 146 nM | GI50 [58]: 3.19 µM | TGI [58]: 21.6 µM | GI50 [59]: 13.2 nM | TGI [59]: 13.4 µM
